Drawing on patent publication US4322428A, “2(4-Fluorophenyl)-4,5,-bis(4-methoxyphenyl)thiazole and method of use” (Eli Lilly and Company, priority 1980, dated 1982), this text covers ED50 for four molecules.

The experiment has as its system writhing in Cox standard strain albino male mice. Description: mouse-writhing test (analgesic), acetic acid-induced writhing. Particulars: oral (p.o.), corn oil-acacia emulsion, writhing induced by intraperitoneal 0.55% (55 mg/kg) acetic acid, read-out: ED50 (effective dosage needed to inhibit 50% of the writhing). The format is in vivo. How it is done: An intraperitoneal injection of 0.55% (55 mg/kg.) acetic acid induces writhing in the mice, which is characterized by contraction of the abdominal musculature, extension of the hindlegs, and rotation of the trunk. The compounds were administered in a corn oil-acacia emulsion. The number of writhes is counted for both the control and treated animals and the percent inhibition computed as follows: [formula]
All dosages were given orally (p.o.) and are expressed in mg/kg. The term "ED50 " means an effective dosage needed to inhibit 50% of the writhing.
With `COc1ccc(-c2nc(-c3ccc(Cl)cc3)sc2-c2ccc(OC)cc2)cc1` [2-(4-Chlorophenyl)-4,5-bis(4-methoxyphenyl)thiazole], the ED50 amounted to 3.75 mg/kg.
Next, `COc1ccc(-c2nc(-c3ccc(F)cc3)sc2-c2ccc(OC)cc2)cc1` [2-(4-Fluorophenyl)-4,5-bis(4-methoxyphenyl)thiazole]: 0.82 mg/kg.
To `COc1ccc(-c2nc(-c3ccccc3)sc2-c2ccc(OC)cc2)cc1` [2-Phenyl-4,5-bis(4-methoxyphenyl)thiazole] belongs 2.3 mg/kg; to `COc1ccc(-c2nc(-c3ccc(Br)cc3)sc2-c2ccc(OC)cc2)cc1` [2-(4-Bromophenyl)-4,5-bis(4-methoxyphenyl)thiazole], 1.46 mg/kg.
